Experimental data reported in publication PMC12256496, “An advancement in developmental and reproductive toxicity (DART) risk assessment: evaluation of a bioactivity and exposure-based NAM toolbox” (Frontiers in Toxicology, 2025).
Like-named read-outs stand apart in the source and are kept apart here. Peptide text beside a SMILES is read from it.

Tests used:
[1] = cited from earlier work
[2] = tested on: human developmental and reproductive toxicity; conditions: ref Supplementary Data Sheet 1, cited from earlier work
[3] = cited from earlier work; remark: listed apart in the source
[4] = renal clearance, Fup*GFR (PBK parameter); conditions: method Fup*GFR
[5] = tested on: developmental or reproductive toxicity in animal or human; conditions: cited from earlier work
thyroid peroxidase (TPO) = test: IPP: thyroid peroxidase (TPO) binding; conditions: low-risk exposure scenario
Text: In vitro pharmacological profiling is used to measure specific and high affinity non-covalent binding interactions between chemicals of interest and various targets with known safety liabilities. These targets include G protein coupled receptors (GPCRs), nuclear hormone receptors (NHRs), ion channels and enzymes. For this evaluation we included 72 targets of interest a full list of which is available in Supplementary Data Sheet 5, across a range of radioligand binding, enzymatic and protein-protein interaction assays run in binding mode only.
The process for deriving a PoD for each of the 72 targets consisted of a two-step method that has been widely adopted when conducting in vitro pharmacological profiling experiments ([Brennan et al., 2024]). […] Targets showing an inhibition or stimulation greater than 50% of a maximal response produced by a reference compound are followed up in a second phase which includes an eight-point concentration response (in two replicates). […] EC50 values (concentration producing a half-maximal response) and IC50 values (concentration causing a half-maximal inhibition of the control agonist response) were determined by the Bayesian probabilistic model of the concentration-response curves and the Hill equation as per ([Labelle et al., 2019]). […] Calculated IC50s were taken forwards as the IPP PoDs ([Middleton et al., 2022]). […]

[6] = cited from earlier work; remark: listed apart in the source
[7] = hepatic intrinsic clearance, CLint (PBK parameter); type: in vitro ADME
[8] = human
[9] = Human in vivo PK data: concentration-dose ratio (CDR) and toxicokinetic variability factor (TKVF); design: 95% percentile (Conc-dose-ratio): unit not given here;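 note: Literature-pooled human in vivo PK data, plasma, serum or cord blood concentrations per daily dose, weighted by study population size across non-pregnant, pregnant and fetal groups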
rabbits = tested on: rabbits; design: method as in Supplementary Data Sheet 1; conditions: ref Supplementary Data Sheet 1, cited from earlier work
rats = conditions: ref Supplementary Data Sheet 1, cited from earlier work
[10] = tested on: human induced pluripotent stem cells (hiPSCs); test: ReproTracker (cardiomyocyte, hepatocyte-like and neuronal differentiation); type: cell-based
Text: The ReproTracker assay assesses chemical perturbation of early embryonic development by evaluating key events of cardiomyocyte, hepatocyte-like (HLC) and neuronal cell differentiation using human induced pluripotent stem cells (hiPSCs). The ReproTracker protocol is described in ([Jamalpoor et al., 2022]; [Moreau et al., 2023]) and was followed introducing a few modifications to allow for concentration response analysis. […] Lineage specific differentiation was then investigated by assessment of gene expression patterns of cell-specific biomarkers, induced cytotoxicity (AlamarBlue cell viability assay) and by morphological profiling. Gene biomarkers quantified by multiplex qRT-PCR included BMP4 and MYH6 for cardiomyocytes, FOXA2 and AFP for hepatocyte-like cells, PAX6 and NESTIN for neural rosette lineage. […] Saccharin was used as a negative control substance for all 3 lineages. For dose dependent qRT-PCR analysis quality control filtered Ct values were normalised using an adaptation of the Pfaffl ([Pfaffl, 2001]) method to calculate ΔCt values with respect to biomarker and housekeeping gene amplification efficiencies. […] In addition, Alamar blue read outs were taken from the differentiating cells at day 7 and the end of each differentiation to measure cell viability in a dose dependent way. The AlamarBlue readout was normalised and transformed using a Bayesian hierarchical approach The Bayesian model assumes measurement between rows on the treatment plates are correlated but allows for differences in average sample response between rows. […] The final cell viability PODs were those at time point end (day 14 for cardiomyocytes, day 21 for HCLs and day 13 for neural) and had CDS above or equal to 0.5. Both the gene biomarker PODs and cell viability/cytotoxicity PODs for each tested lineage are considered for BER calculation.

[11] = tested on: human induced pluripotent stem cell (hiPSC); test: devTOX quickPredict (ornithine/cystine ratio, cell viability); type: cell-based
Experimental: devTOX quickPredict is a human induced pluripotent stem cell (hiPSC) -based assay that predicts the concentration at which a compound may elicit developmental toxicity. […] Assays were performed as described in [Palmer et al. (2013)] with modifications. Briefly undifferentiated hiPSCs are exposed to the compound for 48 h, with media and test article replacement every 24 h. Ornithine and […] concentrations were measured from the final 24-h treatment using Ultra-Performance Liquid Chromatography-High Resolution Mass Spectrometry (UPLC-HRMS). Cell viability was assessed after sample collection using the CellTiter-Fluor Cell Viability Assay (Promega). Dose-response analysis for the o/c ratio, cell viability, ornithine response and cystine response were performed with GraphPad Prism (version 9.1 or newer, GraphPad Software). Each data set was fit with a nonlinear model. The standard model used for analysis is a four-parameter log-logistic nonlinear model. However, the Akaike information criterion (GraphPad Prism) was used to determine if an asymmetric (five-parameter) or multiphasic nonlinear model was a better fit for the data than the four-parameter model. The developmental toxicity potential (dTP, o/c ratio) and toxicity potential (TP, cell viability) concentrations were predicted from the respective dose-response curves using the hiPSCs cell developmental toxicity threshold (dTT, 0.85).

mice = tested on: mice; design: method as in Supplementary Data Sheet 1; conditions: ref Supplementary Data Sheet 1, cited from earlier work
[12] = evidence of developmental or reproductive toxicity in animal or human, irrespective of exposure/dose, ref Supplementary Data Sheet 1
[13] = Non-Pregnant population, TKVF95 = p95 / weighted mean concentration-dose ratio
[14] = Fetus population, TKVF95 = p95 / weighted mean concentration-dose ratio
[15] = Pregnant population, TKVF95 = p95 / weighted mean concentration-dose ratio
[16] = Non-Pregnant, combined (oral, IV)

Cc1c(O)cccc1O [2-Methylresorcinol]
MoS ([1]; existent consumer risk assessment for the cosmetic use scenario, ref SCCS / SCCP / SCCNFP): Used safely in cosmetic products. Existent consumer risk assessment from the SCCS. MoS >4000.
Exposure risk (DART risk classification) ([2]; Cosmetic, […] in hair colourant, dermal): Low Risk
Aqueous Solubility ([3]; Solubility pH 4.91, ref [7]): 263 mg/mL
Renal Clearance [4]: 4.792 L/h
DART Hazard Call [5, 12]: Non Toxic
BER from thyroid peroxidase (TPO) binding (thyroid peroxidase (TPO)): < 1

COC(=O)[C@H](Cc1ccccc1)NC(=O)[C@@H](N)CC(=O)O [Aspartame] (H-Asp-Phe-OMe)
ADI ([1]; ref FSCJ, EFSA, SCF, JMPR as named in the cell): ADI set by EFSA (40 mg/kg/day)
Exposure risk (DART risk classification) ([2]; Dietary, 2,400 mg/daily, oral): Low Risk
Aqueous Solubility ([3]; Solubility pH 2.2, ref [4]): 20 mg/mL
Renal Clearance [4]: 6.049 L/h
Fup ([6]; ref [6]): 83.8%
Intrinsic Liver Clearance ([7]; scaled from [6]): 400.2 L/h

CCOC(=O)c1ccccc1C(=O)OCC [Diethyl phthalate]
Fup ([6]; ref [19]): 19%
Intrinsic Liver Clearance [7]: 596.6 L/h
Renal Clearance [8]: 1.371 L/h

CN(C)C(=N)N=C(N)N [Metformin]
CDR fold difference to non-pregnant ([9]; female, human, in vivo): 0.73
CDR fold difference to pregnant ([9]; female, human, in vivo): 1.00
TKVF ([9]; female, human, in vivo): 2.75
95% percentile (Conc-dose-ratio) ([9]; female, human, in vivo, po): 0.0213
Fold Difference to non-pregnant ([9]; female, human, in vivo, po): 0.73
Fold Difference to pregnant ([9]; female, human, in vivo, po): 1.00
Mean Conc-dose -ratio ([9]; female, human, in vivo, po): 0.008 uM/(mg/day]
TKVF ([9]; female, human, in vivo, po): 2.75
CDR fold difference to pregnant ([9]; human, in vivo): 0.56
Fold Difference to pregnant ([9]; human, in vivo, po): 0.56
Exposure risk (DART risk classification) ([2]; Pharmaceutical, 2,000 mg/daily, oral): Low Risk
highest dose not teratogenic (rabbits; rabbits): 600 mg/kg/day
DART Hazard Call [5, 12]: Non Toxic
highest dose not teratogenic (rats; rats): 600 mg/kg/day

CN(Cc1cnc2nc(N)nc(N)c2n1)c1ccc(C(=O)N[C@@H](CCC(=O)O)C(=O)O)cc1 [Methotrexate (MTX), Methotrexate]
TKVF [9, 13]: 2.74
TKVF ([9]; Non-Pregnant, combined (oral, intramuscular, subcutaneous)): 2.74
CDR fold difference to non-pregnant ([9]; female, human, in vivo): 1.11
TKVF ([9]; female, human, in vivo): 2.65
95% percentile (Conc-dose-ratio) ([9]; female, human, in vivo, sc): 0.15
Fold Difference to non-pregnant ([9]; female, human, in vivo, sc): 1.11
Mean Conc-dose -ratio ([9]; female, human, in vivo, sc): 0.055 uM/(mg/day]
TKVF ([9]; female, human, in vivo, sc): 2.65
CDR fold difference to non-pregnant ([9]; human, in vivo): 1.00
Exposure risk (DART risk classification) ([2]; Pharmaceutical, 10 mg/weekly, oral): High Risk
concentration leading to effects on iPSC differentiation ([10]; additional testing in ReproTracker, data not shown): above 0.0085 μM
BER from devTOX quickPredict ([11]; PoD 0.06 μM, high-risk scenario 10 mg/weekly): ~1
concentration at which disruption to iPSC metabolism was detected ([11]; devTOX quickPredict): 0.06 µM
DART Hazard Call [5, 12]: Toxic

CCN(CC)CCNC(=O)c1cc(Cl)c(N)cc1OC [Metoclopramide]
TKVF [9, 14]: 1.97
TKVF ([9]; Foetus, IV): 1.97
TKVF [9, 13]: 2.85
TKVF ([9]; Non-Pregnant, combined (oral+IV)): 2.85
TKVF [9, 15]: 2.71
TKVF ([9]; Pregnant, IV): 2.71
exposure without adverse developmental effects, multiple of maximum recommended human dose (rabbits; oral, pregnant rabbits): ~12 times
DART Hazard Call [5]: Toxic
exposure without adverse developmental effects, multiple of maximum recommended human dose (rats; oral, pregnant rats): ~6 times

O=C1CN(/N=C/c2ccc([N+](=O)[O-])o2)C(=O)N1 [Nitrofurantoin]
CDR fold difference to non-pregnant ([9]; female, human, in vivo): 1.29
CDR fold difference to pregnant ([9]; female, human, in vivo): 1.00
TKVF ([9]; female, human, in vivo): 5.73
CDR fold difference to pregnant ([9]; human, in vivo): 1.74
95% percentile (Conc-dose-ratio) ([9]; human, in vivo, po): 0.11
Fold Difference to non-pregnant ([9]; human, in vivo, po): 1.00
Mean Conc-dose -ratio ([9]; human, in vivo, po): 0.033 uM/(mg/day]
TKVF ([9]; human, in vivo, po): 3.36
Exposure risk (DART risk classification) ([2]; Pharmaceutical, 200 mg/daily, oral): High Risk
multiple of human dose with growth retardation and low incidence of minor and common malformations (mice; based on mg/kg administered to the dam): 68 times
multiple of human dose at which fetal malformations were not observed (mice): 25 times
DART Hazard Call [5, 12]: Uncertain

CN(CCOc1ccc(CC2SC(=O)NC2=O)cc1)c1ccccn1 (stereo not drawn) [Rosiglitazone]
TKVF ([9]; female, human, in vivo): 1.71
TKVF ([9]; female, human, in vivo, po): 1.71
TKVF ([9]; human, in vivo): 4.34
TKVF ([9]; human, in vivo, po): 4.34
no-effect dose for effects on the placenta, embryo/fetus and offspring (rabbits; rabbits): 15 mg/kg/day
no-effect dose for effects on the placenta, embryo/fetus and offspring (rats; rats): 0.2 mg/kg/day

CCCC(CCC)C(=O)O [Valproic acid (VPA), Valproic acid]
CDR fold difference to non-pregnant ([9]; Fetus population): 0.78
CDR fold difference to pregnant ([9]; Fetus population): 1.13
TKVF [9, 14]: 1.52
95% percentile (Conc-dose-ratio) ([9]; Foetus, combined (oral, IV)): 0.52
Fold Difference to non-pregnant ([9]; Foetus, combined (oral, IV)): 0.78
Fold Difference to pregnant ([9]; Foetus, combined (oral, IV)): 1.13
Mean Conc-dose -ratio ([9]; Foetus, combined (oral, IV)): 0.34 uM/(mg/day]
TKVF ([9]; Foetus, combined (oral, IV)): 1.52
CDR fold difference to non-pregnant ([9]; Non-Pregnant population (reference)): 1.00
TKVF [9, 13]: 1.62
95% percentile (Conc-dose-ratio) [9, 16]: 0.71
Fold Difference to non-pregnant [9, 16]: 1.00
Mean Conc-dose -ratio [9, 16]: 0.44 uM/(mg/day]
TKVF [9, 16]: 1.62
CDR fold difference to non-pregnant ([9]; Pregnant population): 0.69
CDR fold difference to pregnant ([9]; Pregnant population (reference)): 1.00
TKVF [9, 15]: 1.85
95% percentile (Conc-dose-ratio) ([9]; Pregnant, combined (oral, IV)): 0.56
Fold Difference to non-pregnant ([9]; Pregnant, combined (oral, IV)): 0.69
Fold Difference to pregnant ([9]; Pregnant, combined (oral, IV)): 1.00
Mean Conc-dose -ratio ([9]; Pregnant, combined (oral, IV)): 0.30 uM/(mg/day]
TKVF ([9]; Pregnant, combined (oral, IV)): 1.85
Exposure risk (DART risk classification) ([2]; Pharmaceutical, 600 mg/daily, oral): High Risk
Exposure risk (DART risk classification) ([2]; Pharmaceutical, 3,600 mg/daily, oral): High Risk
BER from ReproTracker ([10]; Figure 8B): < 1
BER from devTOX quickPredict ([11]; Figure 8B): < 1
DART Hazard Call [5, 12]: Toxic

CC(=O)CC(c1ccccc1)c1c(O)c2ccccc2oc1=O (stereo not drawn) [Warfarin]
TKVF ([9]; female, human, in vivo): 1.93
TKVF ([9]; female, human, in vivo, po): 1.93
TKVF ([9]; human, in vivo): 1.82
TKVF ([9]; human, in vivo, po): 1.82
ReproTracker outcome ([10]; at higher concentrations, not sensitive enough for a protective PoD): flags potential embryotoxicity
